Measured values as given in paper PMC6278664, “Highly Cancer Selective Antiproliferative Activity of Natural Prenylated Flavonoids” (Molecules, 2018).
Read-outs that look alike come from different tables or passages of the source.

Experiments:
[1] = tested on: MCF7 human breast cancer cell line; test: SRB antiproliferative assay, MCF7; format: cell-based; settings: for Selectivity index SIA, MCF-7: IC50 HLMEC / IC50 MCF-7; for Selectivity index SIB, MCF-7: IC50 MCF-10A / IC50 MCF-7; for IC50: SRB, 72 h, mean ± SD
Procedure: (§1) We determined the effect of various structural factors in the substrates on the antiproliferative activity against those selected to the study cell lines: the location and/or the presence of the prenyl group, the chalcone/flavanone skeleton and the presence of an O-methyl group at C-5 in flavanones. Flavonoids presented in Figure 1 were tested for the antiproliferative activity towards eight cancer cell lines including estrogen-dependent (MCF7 and T-47D) and two normal ones (HLMEC and MCF 10A). The in vitro antiproliferative activity was measured using SRB assay. The results are presented in Figure 2 (and in the supplement in Table S1). The antiproliferative activity was measured separately for each of the experiments and given as the average IC50 (the concentration of tested compound which inhibits 50% of the cells population). Cisplatin (CP), a common anticancer drug, was used as a positive control.
(§2) The following established in vitro cell lines were applied: MCF7, T-47D, MDA-MB-231 (human breast cancer cell line), A2780 (human ovarian cancer cell line), A2780cis (human cisplatin-resistant ovarian cancer cell line), PC-3 and DU 145 (human prostate cancer cell lines), HT-29 (human colon cancer cell line), HLMEC (human lung microvascular endothelial cell line), and MCF 10A (human mammary epithelial cells line).
(§3) The cell lines: MDA-MB-231, HT-29, PC-3, DU 145, and MCF 10A were obtained from the American Type Culture Collection (Rockville, MD, USA), MCF7, T-47D, A2780, A2780cis from the European Collection Cell Cultures (Sigma-Aldrich, Chemie GmbH, Steinheim, Germany), while the HLMEC cell line was obtained by M. Paprocka from the institute. All cell lines are being maintained in the Institute of Immunology and Experimental Therapy (Wrocław, Poland). DU 145 and MCF7 cells were cultured in Eagle medium (supplemented with 4mM L-glutamine, 10% fetal bovine serum, 1 mM sodium pyruvate for DU 145 cells or 2 mM L-glutamine, 1% mem non-essential amino acid solution and 8 µg/mL insulin and 10% fetal bovine serum for MCF7). […] HT-29 and T-47D cell lines were cultured in RPMI 1640 + OPTI-MEM medium supplemented with 2 mM L-glutamine, 5% fetal bovine serum and 8 µg/mL of insulin (T-47D) or 1 mM sodium pyruvate (HT-29). MDA-MB-231, PC-3 and HLMEC cell lines were cultured in RPMI 1640 medium supplemented with 2 mM L-glutamine and 10% fetal bovine serum. Medium for MCF 10A cell line consisted of F-12 nutrient mixture supplemented with cholera toxin (0.05 µg/mL), insulin (10 µg/mL), hydrocortisone (0.5 µg/mL), 5% horse serum, and EGFH (20 ng/mL). All the culture media contained antibiotics: 100 units/mL penicillin (Polfa Tarchomin SA, Warsaw, Poland), and 100 µg/mL streptomycin (Sigma-Aldrich, Chemie GmbH, Steinheim, Germany). All cell lines were grown at 37 °C with 5% CO2 humidified atmosphere.
(§4) Twenty-four hours before the incubation with the tested compounds, the cells were seeded in 96-plates (Sarstedt, Germany) at a density of 1 × 10^4 cells per well (0.75 × 10^4 per well for MCF7 and 1 × 10^3 per well for HLMEC) in 100 µL of a culture medium.
(§5) Each agent at each concentration (from 0.1 to 100 µg/mL) was tested in a single experiment, which was repeated four to five times. […] Cisplatin was used as a reference drug.
(§6) The results were calculated as the IC50 (inhibitory concentration 50%)—the concentration of the tested compound which inhibits 50% of the cells population. IC50 values were calculated for each experiment separately and mean values ± SD are presented in the Table S1 in the Supplementary Materials. Each compound at each concentration was tested in triplicate in a single experiment, which was repeated four to five times.
(§7) The cells were fixed in situ by gently adding cold 50% trichloroacetic acid (50 µL per well). The plates were incubated at 4 °C for 1h and then washed five times with tap water. […]

[2] = tested on: T-47D human breast cancer cell line; test: SRB antiproliferative assay, T-47D; format: cell-based; settings: for Selectivity index SIA, T-47D: IC50 HLMEC / IC50 T-47D; for Selectivity index SIB, T-47D: IC50 MCF-10A / IC50 T-47D; for IC50: SRB, 72 h, mean ± SD
Procedure: as §1, §2, §3, §4, §5, §6, §7

[3] = tested on: MDA-MB-231 human breast cancer cell line; test: SRB antiproliferative assay, MDA-MB-231; format: cell-based; settings: for Selectivity index SIA, MDA-MB-231: IC50 HLMEC / IC50 MDA-MB-231; for Selectivity index SIB, MDA-MB-231: IC50 MCF-10A / IC50 MDA-MB-231; for IC50: SRB, 72 h, mean ± SD
Procedure: as §1, §2, §3, §4, §5, §6, §7

[4] = tested on: HT-29 human colon cancer cell line; test: SRB antiproliferative assay, HT-29; format: cell-based; settings: for Selectivity index SIA, HT-29: IC50 HLMEC / IC50 HT-29; for Selectivity index SIB, HT-29: IC50 MCF-10A / IC50 HT-29; for IC50: SRB, 72 h, mean ± SD
[5] = tested on: A2780 human ovarian cancer cell line; test: SRB antiproliferative assay, A2780; format: cell-based; settings: for Selectivity index SIA, A-2780: IC50 HLMEC / IC50 A-2780; for Selectivity index SIB, A-2780: IC50 MCF-10A / IC50 A-2780; for IC50: SRB, 72 h, mean ± SD, read-out: Cancer cell line, IC50, A-2780
Procedure: as §1, §2, §3, §4, §5, §6, §7

[6] = tested on: A2780cis human cisplatin-resistant ovarian cancer cell line; test: SRB antiproliferative assay, A2780cis; format: cell-based; settings: for Selectivity index SIA, A-2780cis: IC50 HLMEC / IC50 A-2780cis; for Selectivity index SIB, A-2780cis: IC50 MCF-10A / IC50 A-2780cis; for IC50: SRB, 72 h, mean ± SD, read-out: Cancer cell line, IC50, A-2780cis
Procedure: as §1, §2, §3, §4, §5, §6, §7

[7] = tested on: PC-3 human prostate cancer cell line; test: SRB antiproliferative assay, PC-3; format: cell-based; settings: for Selectivity index SIA, PC-3: IC50 HLMEC / IC50 PC-3; for Selectivity index SIB, PC-3: IC50 MCF-10A / IC50 PC-3; for IC50: SRB, 72 h, mean ± SD
Procedure: as §1, §2, §3, §4, §5, §6, §7

[8] = tested on: DU 145 human prostate cancer cell line; test: SRB antiproliferative assay, DU 145; format: cell-based; settings: for Selectivity index SIA, Du-145: IC50 HLMEC / IC50 Du-145; for Selectivity index SIB, Du-145: IC50 MCF-10A / IC50 Du-145; for IC50: SRB, 72 h, mean ± SD
Procedure: as §1, §2, §3, §4, §5, §6, §7

[9] = tested on: HLMEC human lung microvascular endothelial cell line; test: SRB antiproliferative assay, HLMEC (normal); format: cell-based; settings: 72 h, mean ± SD
[10] = tested on: MCF 10A human mammary epithelial cells line; test: SRB antiproliferative assay, MCF 10A (normal); format: cell-based; settings: 72 h, mean ± SD, read-out: Normal cell line, IC50, MCF-10A
Procedure: as §1, §2, §3, §4, §5, §6, §7

[11] = cited from earlier work

| Molecule | Selectivity index SIA, MCF-7 [1] | Selectivity index SIB, MCF-7 [1] | Selectivity index SIA, T-47D [2] | Selectivity index SIB, T-47D [2] | Selectivity index SIA, MDA-MB-231 [3] | Selectivity index SIB, MDA-MB-231 [3] | Selectivity index SIA, HT-29 [4] | Selectivity index SIB, HT-29 [4] | Selectivity index SIA, A-2780 [5] | Selectivity index SIB, A-2780 [5] | Selectivity index SIA, A-2780cis [6] | Selectivity index SIB, A-2780cis [6] | Selectivity index SIA, PC-3 [7] | Selectivity index SIB, PC-3 [7] | Selectivity index SIA, Du-145 [8] | Selectivity index SIB, Du-145 [8] | IC50 ([1]; Homo sapiens, MCF7, 72 h) [µM] | IC50 ([2]; Homo sapiens, T47D) [µM] | IC50 ([3]; Homo sapiens, MDA-MB-231) [µM] | IC50 ([4]; Homo sapiens, HT-29) [µM] | other results |
| --- | --- | --- | --- | --- | --- | --- | --- | --- | --- | --- | --- | --- | --- | --- | --- | --- | --- | --- | --- | --- | --- |
| 8-(3,3-dimethylallyl)-4,7-dihydroxy-5-methoxyflavanone [IXN] | 0.75 | 4.31 | 0.47 | 2.70 | 0.29 | 1.66 | 0.41 | 2.36 | 1.58 | 9.09 | 1.07 | 6.19 | 0.23 | 1.35 | 0.21 | 1.22 | – | – | – | – | IC50 [1]: 16.7 ± 0.88 µM; IC50 [2]: 26.8 ± 6.44 µM; IC50 [3]: 43.3 ± 10.3 µM; IC50 [4]: 30.6 ± 1 µM; IC50 [5]: 7.93 ± 1.65 µM; IC50 [6]: 11.7 ± 1.44 µM; IC50 [7]: 53.2 ± 10.6 µM; IC50 [8]: 59.2 ± 5.73 µM; IC50 [9]: 12.5 ± 5.65 µM; IC50 [10]: 72.1 ± 21.7 µM; Glucuronidation ([11]; in vivo): > 90% |
| N.N.[Cl][Pt][Cl] [Cisplatin (CP), Cisplatin, reference compound] | – | – | – | – | – | – | – | – | – | – | – | – | – | – | – | – | – | – | – | – | IC50 [1]: 6.29 ± 1.05 µM; IC50 [2]: 22.2 ± 7.32 µM; IC50 [3]: 16.9 ± 5.45 µM; IC50 [4]: 9.56 ± 3.75 µM; IC50 [5]: 0.97 ± 0.46 µM; IC50 [6]: 12.1 ± 1.27 µM; IC50 [7]: 11.4 ± 2.23 µM; IC50 [8]: 2.73 ± 1.32 µM; IC50 [9]: 0.93 ± 0.28 µM; IC50 [10]: 13.6 ± 4.93 µM |
| COc1cc(O)c(CC=C(C)C)c(O)c1C(=O)CCc1ccc(O)cc1 [2HXN, 3′-(3,3-dimethylallyl)-4,2′,4′-trihydroxy-6′-methoxy-α,β-dihydrochalcone] | 1.41 | 7.15 | 1.95 | 9.91 | 1.41 | 7.19 | 1.16 | 5.89 | 7.87 | 40.03 | 1.22 | 6.22 | 0.87 | 4.43 | 1.09 | 5.56 | 10.1 ± 2.31 | 7.27 ± 3.05 | 10 ± 3.26 | 12.2 ± 2.99 | IC50 ([5]; Homo sapiens, A2780): 1.8 ± 0.64 µM; SIA against A2780, times higher than the reference ([5]; ratio of SIA to SIA of cisplatin): 5-8 times; IC50 ([6]; Homo sapiens, A2780cis): 11.6 ± 3.36 µM; IC50 ([7]; Homo sapiens): 16.3 ± 5.22 µM; IC50 ([8]; Homo sapiens, DU-145): 13 ± 4.2 µM; IC50 ([9]; Homo sapiens, Endothelial cell): 14.2 ± 4.24 µM; IC50 ([10]; Homo sapiens, MCF-10A): 72 ± 8.55 µM |
| O=C1C[C@@H](c2ccc(O)cc2)Oc2cc(O)cc(O)c21 [NG, Naringenin, reference compound] | 0.90 | 1.43 | 1.12 | 1.79 | 0.71 | 1.13 | 0.90 | 1.43 | 1.17 | 1.87 | 1.07 | 1.71 | 0.68 | 1.09 | 0.88 | 1.40 | 131 ± 6.11 | 105 ± 48.3 | 166 ± 82.4 | 131 ± 28.2 | IC50 [1]: 187 ± 72.4 µM; IC50 ([5]; Homo sapiens, A2780): 100 ± 4.77 µM; IC50 ([6]; Homo sapiens, A2780cis): 109 ± 17 µM; IC50 ([7]; Homo sapiens): 171 ± 28.8 µM; IC50 ([8]; Homo sapiens, DU-145): 134 ± 12.9 µM; IC50 ([9]; Homo sapiens, Endothelial cell): 117 ± 32.3 µM; IC50 ([10]; Homo sapiens, MCF-10A): 187 ± 72.4 µM |
| CC(C)=CCc1c(O)cc2c(c1O)C(=O)CC(c1ccc(O)cc1)O2 (stereo not drawn) [6PN, 6-(3,3-dimethylallyl)-5,7,4′-trihydroxyflavanone] | 0.32 | 2.54 | 0.86 | 6.87 | 0.22 | 1.76 | 0.21 | 1.70 | 0.31 | 2.49 | 0.17 | 1.35 | 0.18 | 1.46 | 0.17 | 1.38 | 43.2 ± 4.37 | 16 ± 3.74 | 62.6 ± 19.5 | 64.6 ± 17.1 | IC50 ([5]; Homo sapiens, A2780): 44.2 ± 14.7 µM; IC50 ([6]; Homo sapiens, A2780cis): 81.7 ± 17.7 µM; IC50 ([7]; Homo sapiens): 75.5 ± 29.8 µM; IC50 ([8]; Homo sapiens, DU-145): 79.6 ± 8.89 µM; IC50 ([9]; Homo sapiens, Endothelial cell): 13.7 ± 5.16 µM; IC50 ([10]; Homo sapiens, MCF-10A): 110 ± 33 µM |
| CC(C)=CCc1c(O)cc(O)c2c1OC(c1ccc(O)cc1)CC2=O (stereo not drawn) [8PN, 8-(3,3-dimethylallyl)-5,7,4′-trihydroxyflavanone] | 0.48 | 1.83 | 0.90 | 3.40 | 0.37 | 1.42 | 0.27 | 1.00 | 0.92 | 3.50 | 0.36 | 1.37 | 0.47 | 1.77 | 0.39 | 1.50 | 49.5 ± 7.36 | 26.7 ± 9.7 | 63.8 ± 7.27 | 89.8 ± 3.42 | IC50 ([5]; Homo sapiens, A2780): 25.9 ± 8.32 µM; IC50 ([6]; Homo sapiens, A2780cis): 66.4 ± 10.1 µM; IC50 ([7]; Homo sapiens): 51.4 ± 11.3 µM; IC50 ([8]; Homo sapiens, DU-145): 60.6 ± 6.66 µM; IC50 ([9]; Homo sapiens, Endothelial cell): 23.9 ± 10.9 µM; IC50 ([10]; Homo sapiens, MCF-10A): 90.7 ± 19.8 µM; Glucuronidation ([11]; breast tissue study of Bolca and co-workers): > 90% |
